In ChEMBL document CHEMBL1909046, “DrugMatrix in vitro pharmacology data”:

Tested on: not listed separately
Experiment: DRUGMATRIX: Phorbol Ester radioligand binding (ligand: [3H] PDBu)
Assay type: cell membranes, Mus musculus, ICR, Brain, Membrane
Conditions: Not Active = under 50% inhibition at 10 µM

Compound	IC50	Ki
Cc1oncc1C(=O)Nc1ccc(C(F)(F)F)cc1 [LEFLUNOMIDE]	Not Active	Not Active
CC[C@@H](CO)NC(=O)[C@@H]1C=C2c3cccc4[nH]cc(c34)C[C@H]2N(C)C1 [METHYLERGONOVINE]	Not Active	Not Active
CCOC(=O)N1CCC(=C2c3ccc(Cl)cc3CCc3cccnc32)CC1 [LORATADINE]	Not Active	Not Active
CC(C)(C)NC(=O)[C@@H]1C[C@@H]2CCCC[C@@H]2CN1C[C@@H](O)[C@H](Cc1ccccc1)NC(=O)[C@H](CC(N)=O)NC(=O)c1ccc2ccccc2n1	Not Active	Not Active
CC(=O)[C@@]1(O)CC[C@H]2[C@@H]3C[C@H](C)C4=CC(=O)CC[C@]4(C)[C@H]3CC[C@@]21C	Not Active	Not Active
Nc1nc2nc[nH]c2c(=S)[nH]1 [THIOGUANINE]	Not Active	Not Active
COc1nc(C)nc(Cl)c1NC1=NCCN1 [MOXONIDINE]	Not Active	Not Active
C[C@@H]1CN(c2c(F)c(N)c3c(=O)c(C(=O)O)cn(C4CC4)c3c2F)C[C@H](C)N1 [SPARFLOXACIN]	Not Active	Not Active
N[C@@H](Cc1ccc(O)c(O)c1)C(=O)O [LEVODOPA]	Not Active	Not Active

Target: 5-hydroxytryptamine receptor 6 (Homo sapiens, UniProt P50406); also: in other assays of this panel Not Active means under 50% inhibition at 10 µM
Sequence (P50406 whole entry): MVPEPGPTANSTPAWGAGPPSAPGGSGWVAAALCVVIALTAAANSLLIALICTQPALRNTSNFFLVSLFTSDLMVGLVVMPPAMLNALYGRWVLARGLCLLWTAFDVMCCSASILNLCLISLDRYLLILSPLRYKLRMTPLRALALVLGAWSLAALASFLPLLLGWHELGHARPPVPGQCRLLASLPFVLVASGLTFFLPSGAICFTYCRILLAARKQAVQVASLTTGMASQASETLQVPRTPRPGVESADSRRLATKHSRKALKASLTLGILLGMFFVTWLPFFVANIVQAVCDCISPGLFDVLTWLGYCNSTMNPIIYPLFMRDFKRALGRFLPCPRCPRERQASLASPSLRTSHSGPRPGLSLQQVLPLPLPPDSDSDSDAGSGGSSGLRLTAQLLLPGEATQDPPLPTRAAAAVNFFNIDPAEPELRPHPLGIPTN
Assay type: cell membranes, HeLa, Membrane
Conditions: hela

Compound	IC50
Cc1oncc1C(=O)Nc1ccc(C(F)(F)F)cc1 [LEFLUNOMIDE]	Not Active
CCOC(=O)N1CCC(=C2c3ccc(Cl)cc3CCc3cccnc32)CC1 [LORATADINE]	Not Active
CC(C)(C)NC(=O)[C@@H]1C[C@@H]2CCCC[C@@H]2CN1C[C@@H](O)[C@H](Cc1ccccc1)NC(=O)[C@H](CC(N)=O)NC(=O)c1ccc2ccccc2n1	Not Active
CC(=O)[C@@]1(O)CC[C@H]2[C@@H]3C[C@H](C)C4=CC(=O)CC[C@]4(C)[C@H]3CC[C@@]21C	Not Active
Nc1nc2nc[nH]c2c(=S)[nH]1 [THIOGUANINE]	Not Active
COc1nc(C)nc(Cl)c1NC1=NCCN1 [MOXONIDINE]	Not Active
C[C@@H]1CN(c2c(F)c(N)c3c(=O)c(C(=O)O)cn(C4CC4)c3c2F)C[C@H](C)N1 [SPARFLOXACIN]	Not Active
N[C@@H](Cc1ccc(O)c(O)c1)C(=O)O [LEVODOPA]	Not Active

Same assay, conditions: read-out: IC50

Compound	IC50 [nM]
CC[C@@H](CO)NC(=O)[C@@H]1C=C2c3cccc4[nH]cc(c34)C[C@H]2N(C)C1 [METHYLERGONOVINE]	2.54

Same assay, conditions: read-out: Ki

Compound	Ki [nM]
CC[C@@H](CO)NC(=O)[C@@H]1C=C2c3cccc4[nH]cc(c34)C[C@H]2N(C)C1 [METHYLERGONOVINE]	1.18

Target: T1, Cysteinyl leukotriene receptor 1 (Homo sapiens, UniProt Q9Y271); also: in other assays of this panel Not Active means under 50% inhibition at 10 µM
T1 sequence (Q9Y271 whole entry): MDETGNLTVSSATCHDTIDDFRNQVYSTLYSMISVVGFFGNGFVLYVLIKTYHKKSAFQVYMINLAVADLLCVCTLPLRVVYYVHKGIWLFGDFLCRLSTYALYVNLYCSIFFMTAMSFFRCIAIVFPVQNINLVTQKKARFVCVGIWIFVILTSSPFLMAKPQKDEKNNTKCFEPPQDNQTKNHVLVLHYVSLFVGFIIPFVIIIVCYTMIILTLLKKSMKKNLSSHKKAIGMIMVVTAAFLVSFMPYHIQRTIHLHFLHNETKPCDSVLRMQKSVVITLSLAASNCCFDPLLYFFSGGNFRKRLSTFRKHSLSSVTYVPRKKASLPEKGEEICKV
Assay type: cell membranes, CHO-K1, Membrane
Conditions: cho-k1

Compound	IC50
Cc1oncc1C(=O)Nc1ccc(C(F)(F)F)cc1 [LEFLUNOMIDE]	Not Active
CC[C@@H](CO)NC(=O)[C@@H]1C=C2c3cccc4[nH]cc(c34)C[C@H]2N(C)C1 [METHYLERGONOVINE]	Not Active
CCOC(=O)N1CCC(=C2c3ccc(Cl)cc3CCc3cccnc32)CC1 [LORATADINE]	Not Active
CC(C)(C)NC(=O)[C@@H]1C[C@@H]2CCCC[C@@H]2CN1C[C@@H](O)[C@H](Cc1ccccc1)NC(=O)[C@H](CC(N)=O)NC(=O)c1ccc2ccccc2n1	Not Active
CC(=O)[C@@]1(O)CC[C@H]2[C@@H]3C[C@H](C)C4=CC(=O)CC[C@]4(C)[C@H]3CC[C@@]21C	Not Active
Nc1nc2nc[nH]c2c(=S)[nH]1 [THIOGUANINE]	Not Active
COc1nc(C)nc(Cl)c1NC1=NCCN1 [MOXONIDINE]	Not Active
C[C@@H]1CN(c2c(F)c(N)c3c(=O)c(C(=O)O)cn(C4CC4)c3c2F)C[C@H](C)N1 [SPARFLOXACIN]	Not Active
N[C@@H](Cc1ccc(O)c(O)c1)C(=O)O [LEVODOPA]	Not Active

Target: T2, Muscarinic acetylcholine receptor M4 (Homo sapiens, UniProt P08173); also: in other assays of this panel Not Active means under 50% inhibition at 10 µM
T2 sequence (P08173 whole entry): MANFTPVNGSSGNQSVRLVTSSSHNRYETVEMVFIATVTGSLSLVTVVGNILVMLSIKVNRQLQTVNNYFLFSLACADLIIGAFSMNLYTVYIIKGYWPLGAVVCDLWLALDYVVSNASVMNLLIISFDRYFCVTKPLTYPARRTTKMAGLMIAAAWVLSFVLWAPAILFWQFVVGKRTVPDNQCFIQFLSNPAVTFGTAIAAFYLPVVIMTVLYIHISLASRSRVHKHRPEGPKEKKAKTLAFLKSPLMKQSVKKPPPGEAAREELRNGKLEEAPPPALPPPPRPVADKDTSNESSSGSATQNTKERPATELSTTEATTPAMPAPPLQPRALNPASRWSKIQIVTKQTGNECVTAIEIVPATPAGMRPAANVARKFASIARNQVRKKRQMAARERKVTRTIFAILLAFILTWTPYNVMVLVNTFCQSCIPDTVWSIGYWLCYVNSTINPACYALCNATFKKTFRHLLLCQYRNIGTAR
Assay type: cell membranes, CHO-K1, Membrane
Conditions: cho-k1

Compound	IC50
Cc1oncc1C(=O)Nc1ccc(C(F)(F)F)cc1 [LEFLUNOMIDE]	Not Active
CC[C@@H](CO)NC(=O)[C@@H]1C=C2c3cccc4[nH]cc(c34)C[C@H]2N(C)C1 [METHYLERGONOVINE]	Not Active
CCOC(=O)N1CCC(=C2c3ccc(Cl)cc3CCc3cccnc32)CC1 [LORATADINE]	Not Active
CC(C)(C)NC(=O)[C@@H]1C[C@@H]2CCCC[C@@H]2CN1C[C@@H](O)[C@H](Cc1ccccc1)NC(=O)[C@H](CC(N)=O)NC(=O)c1ccc2ccccc2n1	Not Active
CC(=O)[C@@]1(O)CC[C@H]2[C@@H]3C[C@H](C)C4=CC(=O)CC[C@]4(C)[C@H]3CC[C@@]21C	Not Active
Nc1nc2nc[nH]c2c(=S)[nH]1 [THIOGUANINE]	Not Active
COc1nc(C)nc(Cl)c1NC1=NCCN1 [MOXONIDINE]	Not Active
C[C@@H]1CN(c2c(F)c(N)c3c(=O)c(C(=O)O)cn(C4CC4)c3c2F)C[C@H](C)N1 [SPARFLOXACIN]	Not Active
N[C@@H](Cc1ccc(O)c(O)c1)C(=O)O [LEVODOPA]	Not Active

Target: D(1A) dopamine receptor (Homo sapiens, UniProt P21728)
Sequence (P21728 whole entry): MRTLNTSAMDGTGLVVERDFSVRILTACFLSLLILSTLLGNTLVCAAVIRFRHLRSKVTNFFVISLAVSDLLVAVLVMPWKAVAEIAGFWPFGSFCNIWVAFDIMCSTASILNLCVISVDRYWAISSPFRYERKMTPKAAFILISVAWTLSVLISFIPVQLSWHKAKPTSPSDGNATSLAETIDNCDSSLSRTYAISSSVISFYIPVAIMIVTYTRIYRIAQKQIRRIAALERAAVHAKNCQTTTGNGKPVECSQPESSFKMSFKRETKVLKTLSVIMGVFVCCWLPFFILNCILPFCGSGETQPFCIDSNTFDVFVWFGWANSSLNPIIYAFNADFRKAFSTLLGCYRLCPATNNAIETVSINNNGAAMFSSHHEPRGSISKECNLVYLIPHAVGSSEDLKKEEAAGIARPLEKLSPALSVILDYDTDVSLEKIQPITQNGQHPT
Experiment: DRUGMATRIX: Dopamine D1 radioligand binding (ligand: [3H] SCH-23390)
Assay type: cell membranes, CHO, Membrane
Conditions: Not Active = under 50% inhibition at 10 µM; read-out: IC50

Compound	IC50 [nM]
CC[C@@H](CO)NC(=O)[C@@H]1C=C2c3cccc4[nH]cc(c34)C[C@H]2N(C)C1 [METHYLERGONOVINE]	1080

Same assay, conditions: Not Active = under 50% inhibition at 10 µM; read-out: Ki

Compound	Ki [nM]
CC[C@@H](CO)NC(=O)[C@@H]1C=C2c3cccc4[nH]cc(c34)C[C@H]2N(C)C1 [METHYLERGONOVINE]	539

Same assay, conditions: cho; Not Active = under 50% inhibition at 10 µM

Compound	IC50
Cc1oncc1C(=O)Nc1ccc(C(F)(F)F)cc1 [LEFLUNOMIDE]	Not Active
CCOC(=O)N1CCC(=C2c3ccc(Cl)cc3CCc3cccnc32)CC1 [LORATADINE]	Not Active
CC(C)(C)NC(=O)[C@@H]1C[C@@H]2CCCC[C@@H]2CN1C[C@@H](O)[C@H](Cc1ccccc1)NC(=O)[C@H](CC(N)=O)NC(=O)c1ccc2ccccc2n1	Not Active
CC(=O)[C@@]1(O)CC[C@H]2[C@@H]3C[C@H](C)C4=CC(=O)CC[C@]4(C)[C@H]3CC[C@@]21C	Not Active
Nc1nc2nc[nH]c2c(=S)[nH]1 [THIOGUANINE]	Not Active
COc1nc(C)nc(Cl)c1NC1=NCCN1 [MOXONIDINE]	Not Active
C[C@@H]1CN(c2c(F)c(N)c3c(=O)c(C(=O)O)cn(C4CC4)c3c2F)C[C@H](C)N1 [SPARFLOXACIN]	Not Active
N[C@@H](Cc1ccc(O)c(O)c1)C(=O)O [LEVODOPA]	Not Active

Target: T3, Angiotensin-converting enzyme (Oryctolagus cuniculus, UniProt P12822);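 also: enzymatic inhibition of angiotensin-converting enzyme measured with FAPGG as the substrate; in other assays of this panel Not Active means under 50% inhibition at 10 µM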
T3 sequence (P12822 whole entry): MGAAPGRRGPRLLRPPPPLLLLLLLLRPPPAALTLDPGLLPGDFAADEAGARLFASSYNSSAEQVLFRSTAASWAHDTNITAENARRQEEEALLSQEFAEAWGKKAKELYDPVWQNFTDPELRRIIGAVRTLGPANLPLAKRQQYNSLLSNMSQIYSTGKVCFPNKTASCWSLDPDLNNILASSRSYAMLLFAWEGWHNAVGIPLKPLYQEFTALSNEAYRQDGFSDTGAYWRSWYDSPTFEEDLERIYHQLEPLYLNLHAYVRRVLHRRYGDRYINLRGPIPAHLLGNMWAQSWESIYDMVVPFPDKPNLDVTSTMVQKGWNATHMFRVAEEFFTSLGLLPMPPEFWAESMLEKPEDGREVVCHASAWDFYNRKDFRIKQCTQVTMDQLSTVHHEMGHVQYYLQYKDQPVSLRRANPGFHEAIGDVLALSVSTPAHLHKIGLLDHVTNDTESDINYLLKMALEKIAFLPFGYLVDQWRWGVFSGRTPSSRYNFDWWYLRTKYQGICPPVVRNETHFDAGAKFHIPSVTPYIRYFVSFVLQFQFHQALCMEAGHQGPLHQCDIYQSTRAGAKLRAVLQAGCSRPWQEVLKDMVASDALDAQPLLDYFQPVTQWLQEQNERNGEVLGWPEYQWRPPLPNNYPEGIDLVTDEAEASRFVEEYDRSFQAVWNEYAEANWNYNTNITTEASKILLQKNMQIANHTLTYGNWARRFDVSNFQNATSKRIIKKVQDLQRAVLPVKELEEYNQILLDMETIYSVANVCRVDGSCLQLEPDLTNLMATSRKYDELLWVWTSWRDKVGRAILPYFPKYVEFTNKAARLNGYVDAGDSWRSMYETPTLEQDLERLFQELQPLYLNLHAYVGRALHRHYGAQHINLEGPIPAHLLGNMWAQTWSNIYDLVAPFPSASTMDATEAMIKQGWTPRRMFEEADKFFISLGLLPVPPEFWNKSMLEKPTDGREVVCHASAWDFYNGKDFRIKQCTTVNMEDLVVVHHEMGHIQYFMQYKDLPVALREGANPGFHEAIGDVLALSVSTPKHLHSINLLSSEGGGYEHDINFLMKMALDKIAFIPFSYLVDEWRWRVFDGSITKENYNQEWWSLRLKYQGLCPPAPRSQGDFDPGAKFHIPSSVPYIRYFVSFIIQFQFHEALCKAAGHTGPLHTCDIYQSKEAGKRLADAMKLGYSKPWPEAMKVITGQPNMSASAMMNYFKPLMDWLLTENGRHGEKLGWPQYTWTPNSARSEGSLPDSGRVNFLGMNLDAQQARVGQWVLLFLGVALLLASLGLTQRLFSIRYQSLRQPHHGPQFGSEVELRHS
Assay type: tissue-based, Lung
Conditions: not given

Compound	IC50
Cc1oncc1C(=O)Nc1ccc(C(F)(F)F)cc1 [LEFLUNOMIDE]	Not Active
CC[C@@H](CO)NC(=O)[C@@H]1C=C2c3cccc4[nH]cc(c34)C[C@H]2N(C)C1 [METHYLERGONOVINE]	Not Active
CCOC(=O)N1CCC(=C2c3ccc(Cl)cc3CCc3cccnc32)CC1 [LORATADINE]	Not Active
CC(C)(C)NC(=O)[C@@H]1C[C@@H]2CCCC[C@@H]2CN1C[C@@H](O)[C@H](Cc1ccccc1)NC(=O)[C@H](CC(N)=O)NC(=O)c1ccc2ccccc2n1	Not Active
CC(=O)[C@@]1(O)CC[C@H]2[C@@H]3C[C@H](C)C4=CC(=O)CC[C@]4(C)[C@H]3CC[C@@]21C	Not Active
Nc1nc2nc[nH]c2c(=S)[nH]1 [THIOGUANINE]	Not Active
COc1nc(C)nc(Cl)c1NC1=NCCN1 [MOXONIDINE]	Not Active
C[C@@H]1CN(c2c(F)c(N)c3c(=O)c(C(=O)O)cn(C4CC4)c3c2F)C[C@H](C)N1 [SPARFLOXACIN]	Not Active
N[C@@H](Cc1ccc(O)c(O)c1)C(=O)O [LEVODOPA]	Not Active
